Data: article PMC11046469, “Leveraging a Phage-Encoded Noncanonical Amino Acid: A Novel Pathway to Potent and Selective Epigenetic Reader Protein Inhibitors” (ACS Central Science, 2024)
Where a SMILES comes first, the peptide text is derived from it. The star is where a group is joined. Oxazole(5-CO) = O=C(c1cnco1)*; Crotonyl(E) = C/C=C/C(=O)*; 2Furoyl = O=C(c1ccco1)*; Butyryl = CCCC(=O)*

These compounds were tested against T1, AF9 YEATS (His-AF9) (Homo sapiens, UniProt P42568) (assay: Biolayer interferometry (BLI) binding to AF9 YEATS).
T1 construct: His-AF9 (aa 1-149, EpiCypher); purchased EpiCypher
T1 sequence (P42568 1-149): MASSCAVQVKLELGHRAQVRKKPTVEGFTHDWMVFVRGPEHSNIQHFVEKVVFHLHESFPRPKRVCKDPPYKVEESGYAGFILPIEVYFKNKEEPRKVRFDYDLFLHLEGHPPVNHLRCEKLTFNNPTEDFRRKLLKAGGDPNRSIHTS
Experimental: These potent inhibitors were then tested to confirm their selectivity for ENL YEATS over AF9 YEATS since the two YEATS domains share high sequence and structure homology. One potential of using ncAA-containing phage display for active site-directed ligand search is the possibility of amino acids flanking the ncAA in a selected peptide to selectively engage the target over a close homologue. We wanted to validate this potential as well. Selective targeting of ENL YEATS is also preferred in leukemia interventions as it plays a pivotal role in the progression and maintenance of several AMLs and poses minimal harm to normal hematopoietic stem cells upon inhibition. […] We propose that the selectivity arises from the peptide residues interacting with surface areas adjacent to the active site of ENL YEATS. […] Similarly, BLI analyses were conducted to examine preferential binding of inhibitors to ENL YEATS. […] Two previous publications have documented peptide-based YEATS inhibitors featuring alkylated lysine residues.[42],[43] […]
Biolayer Interferometry to Validate ENL Ligands:
His-ENL, His-AF9 (aa 1-149, EpiCypher), His-GAS41 (aa 15-160, EpiCypher), and YEATS2-His (aa 200-345, EpiCypher) were reconstituted in water and diluted into assay buffer (20mM Tris, 300 mM NaCl, pH 7.9) for immobilization onto Octet Ni-NTA biosensors (Sartorius). Lyophilized peptides were dissolved in DMF and diluted to designated concentrations in assay buffer. Biolayer interferometry assays were performed in 96 well plates (GreinerBio-One, polypropylene, flat-bottom) using an Octet Red96 System (Sartorius). Wells were filled with 200 μL of assay buffer, blocking buffer (assay buffer + 0.1% BSA), protein solution, peptide solution, regeneration solution, and reload solution. For immobilization, His-tagged proteins were immobilized onto Ni-NTA sensors at 20 for 600 s. Sensors were then dipped into blocking buffer for 180 s, assay […] buffer for 300 s, peptide solution for 300 s, and back to assay buffer for 300 s. If multiple samples were tested, Ni-NTA sensors can be reconditioned in regeneration (10 mM glycine, pH 1.7) solution followed by reload solution (10 mM NiCl2) for 30 and 60 s, respectively. Measurements were carried out at 30 °C. Data were analyzed within the ForteBio Data Analysis software. […]
The AlphaScreen assay was carried out in 384-well plates. […] AlphaScreen-signals were detected by a multi-mode microplate reader (BioTeK Synergy Neo2) equipped with an Alpha-laser (PerkinElmer). The KD value was determined from the plot using nonlinear regression of variable slope (four parameters) and curve fitting performed in GraphPad Prism. […]
The AlphaScreen assay conditions are essential the same as the previous described. […] IC50 values were determined from the plot using […]

Question: For `CCCC(=O)NCCCC[C@H](NC(=O)[C@H](Cc1ccc(O)cc1)NC(=O)[C@H](CS)NC(=O)[C@H](Cc1ccc(O)cc1)NC(=O)[C@@H](NC(=O)[C@H](CC(=O)O)NC(=O)[C@@H](N)Cc1ccc(O)cc1)C(C)C)C(N)=O` [ENL-S1] (H-YDVYCYK(Butyryl)-NH2), which Kd is on record?
Answer: The Kd was 0.205 µM.

Question: For `C/C=C/C(=O)NCCCC[C@H](NC(=O)[C@H](Cc1ccc(O)cc1)NC(=O)[C@H](CS)NC(=O)[C@H](Cc1ccc(O)cc1)NC(=O)[C@@H](NC(=O)[C@H](CC(=O)O)NC(=O)[C@@H](N)Cc1ccc(O)cc1)C(C)C)C(N)=O` [ENL-S1c] (H-YDVYCYK(Crotonyl(E))-NH2), which Kd is on record?
Answer: The Kd was 0.147 µM.

Question: How did the Kd turn out when `CC(C)[C@H](NC(=O)[C@H](CC(=O)O)NC(=O)[C@@H](N)Cc1ccc(O)cc1)C(=O)N[C@@H](Cc1ccc(O)cc1)C(=O)N[C@@H](CS)C(=O)N[C@@H](Cc1ccc(O)cc1)C(=O)N[C@@H](CCCCNC(=O)c1ccco1)C(N)=O` [ENL-S1f] (H-YDVYCYK(2Furoyl)-NH2) was run?
Answer: Its Kd is 0.144 µM.

Question: How did the Kd turn out when `CC(C)[C@H](NC(=O)[C@H](CC(=O)O)NC(=O)[C@@H](N)Cc1ccc(O)cc1)C(=O)N[C@@H](Cc1ccc(O)cc1)C(=O)N[C@@H](CS)C(=O)N[C@@H](Cc1ccc(O)cc1)C(=O)N[C@@H](CCCCNC(=O)c1cnco1)C(N)=O` [ENL-S1o] (H-YDVYCYK(Oxazole(5-CO))-NH2) was run?
Answer: Its Kd is 0.0551 µM.
